# From US12678463B2, “Activated mesenchymal stem cells for treating limb ischemia” (Cellin Technologies OÜ, priority 2019, dated 2026)
# Experiments:
# Assay type in all cases: cell-based, human
# AdMSCs [1] = test: ELISA of secreted inflammatory factors in culture media of AdMSCs; conditions: for effect on CCL2 level / effect on CXCL8 level / effect on IL6 level: LPS-stimulated AdMSC cultures, 24 h; for secreted IL-1RN concentration / secreted IL6 concentration / secreted CCL2 concentration / secreted CXCL8 concentration: LPS-stimulated, AIDs-treated 24 h; for secreted IL-1RN concentration: control + LPS 61 ± 18; for secreted IL6 concentration: control + LPS 210 ± 22; for secreted CCL2 concentration: control + LPS 461 ± 19.9; for secreted CXCL8 concentration: control + LPS 2373 ± 109; for IL-1RN level in culture media over time / IL6 level in culture media over time: LPS-treated cultures, single treatment; for IL-1RN level in culture media over time: serum-deficient, 24, 48 and 72 h; for IL6 level in culture media over time: serum-deficient, 24, 48 and 72 h (prednisolone: at 72 h)
# Protocol: FIG. 5. Changes of inflammatory factors in culture media. Secreted IL6, CXCL8, CCL2 and IL1RN levels were measured from the conditional media of control, LPS-stimulated, and LPS-stimulated and paracetamol or prednisolone-treated AdMSCs by ELISA at 24, 48 and 72 h and represented as normalized to control 24 h probe.
# To mimic inflammatory conditions, AdMSCs were exposed to lipopolysaccharide (LPS) prior to AIDs treatments. […] Then, LPS-treated AdMSCs were exposed to AIDs to study their effect on cytokines in inflammatory conditions.
# AdMSCs [2] = test: WST-1 metabolic activity assay of AdMSCs treated with anti-inflammatory drugs; conditions: first 24 hours; metamizole 10 μM
# Protocol: AdMSCs metabolic activity was measured at 1, 2, 3 and 5 days after the treatments.
# During the first 48 hours, all analyzed AIDs stimulated the metabolic activity of AdMSCs.
# AdMSCs [3] = test: Cell cycle analysis by propidium iodide staining and flow cytometry; conditions: 24 h after treatment; for percentage of cells in G2/M cell cycle phase: vs non-treated control; for percentage of cells in G0/G1 phase: non-treated control 82%, paracetamol 4.4 mM, diclofenac 10 μM, metamizole 10 μM, ketoprofen 50 μM, prednisolone 0.1 μM
# Protocol: FIG. 2. Cell cycle analysis of control and AIDs-treated AdMSCs. AIDs-treated and control AdMSCs were stained with propidium iodide (PI) 24 h after treatments and analyzed using flow cytometry by BD Accuri C6.
# The percentage of cells in G0/1 phase was lower in the cultures treated with metamizole (Analgin™) (65%) and paracetamol (71%), whereas the percentage of cells in G2/M cell cycle phase was increased in these cultures (FIG. 2).
# AdMSCs [4] = test: RT-qPCR of angiogenic marker mRNA in AIDs-treated AdMSCs; conditions: 24 h treatment, relative to untreated AdMSCs, normalized with GAPDH
# Protocol: VEGFA, HGF, bFGF and TEK mRNA expression levels in AdMSCs treated with AIDs for 24 h were measured in triplicates by RT-qPCR and normalized with GAPDH mRNA expression levels. Data from AIDs-treated cells were calculated relatively to control untreated AdMSCs and results are represented in a log scale. Positive values indicated increased and negative values decreased mRNA levels compared to control untreated cells.
# Numerous soluble factors produced by MSCs are involved in the regulation of angiogenesis and neovascularisation in vivo (Estrada et al., 2009). […] The effect of the AIDs on expression of angiogenic factors in AdMSCs was analyzed. Different AIDs affected the expression of angiogenic factors differently either stimulating or suppressing their expression.
# AdMSCs [5] = test: ELISA of secreted inflammatory factors in culture media of AdMSCs; conditions: for secreted IL-1RN concentration / secreted IL6 concentration / secreted CCL2 concentration / secreted CXCL8 concentration: AIDs-treated 24 h; for secreted IL-1RN concentration: control 2.3 ± 0.03; for secreted IL6 concentration: control 40 ± 2; for secreted CCL2 concentration: control 96 ± 3.2; for secreted CXCL8 concentration: control 277 ± 12.7
# LPS-stimulated AdMSCs = test: RT-qPCR of inflammatory gene mRNA in LPS-stimulated AIDs-treated AdMSCs; conditions: 24 hours exposure, vs LPS-treated cells
# Protocol: FIG. 4. Relative mRNA expression of inflammatory genes in LPS-stimulated and AIDs-treated for 24 h AdMSCs represented as heat map. Expression levels were measured in triplicates by RT-qPCR and normalized with GAPDH mRNA expression levels. Data from LPS-stimulated AIDs-treated AdMSCs were calculated as a relative fold difference compared to LPS-treated cells and converted to the log scale. The quantitative changes in gene expression are represented by shading: darker shade indicates up-regulation, whereas lighter shade indicates down-regulation. Expression data were visualized using GENE-E software.
# FIG. 6. Heat map of the expression profile of inflammatory genes in LPS-stimulated and AIDs-treated AdMSCs. Inflammatory genes mRNA expression levels of LPS-stimulated and AIDs-treated for 48 h (A) and 72 h (B) AdMSCs were calculated as a fold difference compared to LPS-treated AdMSCs and represented as heat maps. Expression levels of inflammatory gene mRNAs were measured in triplicates by RT-qPCR, normalized with GAPDH mRNA levels and converted to the log scale. Positive values (darker shade) indicate higher expression, and negative values (lighter shade) lower expression relatively to the control LPS-treated AdMSCs.
# Effects of AIDs on mRNA expression of inflammatory cytokines in AdMSCs were analyzed using RT-qPCR technique. Analyses results were visualized as a heat map graph using GENE-E platform (FIG. 4). Short-term treatment of AdMSCs by AIDs affected the expression of inflammatory cytokines. […] Expression of pro-inflammatory cytokines CCL2, CCL3, TNF, IL6, ILIA and ILIB was suppressed by ketoprofen and metamizole (Analgin™) treatments.
# Effects of repeated AIDs treatments (48 and 72 h) on mRNA expression of cytokines in AdMSCs were analyzed using RT-qPCR technique. Differential expression of cytokine genes is represented as a heat map in FIG. 6. […] Upon exposure to various drugs, complex expression pattern of pro- and anti-inflammatory factors were observed. […] However, the stable induced expression of anti-inflammatory factors (IL4, TNFAIP6, IDO1) was not observed.
# [6] = standard culture conditions, no LPS
# [7] = LPS-treated cultures, single treatment, serum-deficient, 24, 48 and 72 h
smiles,measurement,setting,value
"Cc1c(N(C)CS(=O)(=O)O)c(=O)n(-c2ccccc2)n1C [metamizole (Analgin™), metamizole]",effect on CCL2 level,AdMSCs [1],Inhibitory effect
same,secreted IL-1RN concentration,AdMSCs [1],12 ± 1 pg/mL
same,secreted IL6 concentration,AdMSCs [1],180 ± 29 pg/mL
same,secreted CCL2 concentration,AdMSCs [1],313 ± 43.9 pg/mL
same,secreted CXCL8 concentration,AdMSCs [1],1816 ± 121 pg/mL
same,cellular metabolism (WST-1 metabolic activity),AdMSCs [2],significantly stimulated
same,percentage of cells in G2/M cell cycle phase,AdMSCs [3],increased
same,percentage of cells in G0/G1 phase,AdMSCs [3],65%
same,HGF mRNA expression,AdMSCs [4],up-regulation
same,TEK mRNA expression,AdMSCs [4],up-regulation
same,VEGFA mRNA expression,AdMSCs [4],up-regulation
same,bFGF mRNA expression,AdMSCs [4],up-regulation
same,secreted IL-1RN concentration,AdMSCs [5]; no LPS,3.9 ± 0.03 pg/mL
same,secreted IL6 concentration,AdMSCs [5]; no LPS,30 ± 1 pg/mL
same,secreted CCL2 concentration,AdMSCs [5]; no LPS,109 ± 3.2 pg/mL
same,secreted CXCL8 concentration,AdMSCs [5]; no LPS,341 ± 4.7 pg/mL
same,effect on IL1RN expression,"AdMSCs [5]; LPS-stimulated AdMSC cultures, 24 h",Inhibitory effect
same,effect on synthesis and secretion of immunomodulatory factors,AdMSCs [5]; [6],minor effect
same,"expression of pro-inflammatory cytokines CCL2, CCL3, TNF, IL6, ILIA and ILIB (mRNA)",LPS-stimulated AdMSCs,suppressed
CC(=O)Nc1ccc(O)cc1 [paracetamol],effect on CXCL8 level,AdMSCs [1],significantly reduced
same,effect on IL6 level,AdMSCs [1],significantly reduced
same,secreted IL-1RN concentration,AdMSCs [1],33 ± 9 pg/mL
same,secreted IL6 concentration,AdMSCs [1],90 ± 14 pg/mL
same,secreted CCL2 concentration,AdMSCs [1],270 ± 29.9 pg/mL
same,secreted CXCL8 concentration,AdMSCs [1],623 ± 41 pg/mL
same,IL-1RN level in culture media over time,AdMSCs [1],no significant effects
same,IL6 level in culture media over time,AdMSCs [1],no significant effects
same,percentage of cells in G2/M cell cycle phase,AdMSCs [3],increased
same,percentage of cells in G0/G1 phase,AdMSCs [3],71%
same,HGF mRNA expression,AdMSCs [4],inhibited
same,TEK mRNA expression,AdMSCs [4],strongly suppressed
same,VEGFA mRNA expression,AdMSCs [4],inhibited
same,bFGF mRNA expression,AdMSCs [4],induced
same,secreted IL-1RN concentration,AdMSCs [5]; no LPS,11.0 ± 0.65 pg/mL
same,secreted IL6 concentration,AdMSCs [5]; no LPS,0 pg/mL
same,secreted CCL2 concentration,AdMSCs [5]; no LPS,8 ± 0.4 pg/mL
same,secreted CXCL8 concentration,AdMSCs [5]; no LPS,11 ± 0.1 pg/mL
same,CCL2 level in culture media over time,AdMSCs [5]; [7],lowered
same,CXCL8 level in culture media over time,AdMSCs [5]; [7],no significant effects
same,CCL2 level in culture media compared to untreated cells,AdMSCs [5]; [6],significant reduction
same,CXCL8/IL8 level in culture media compared to untreated cells,AdMSCs [5]; [6],significant reduction
same,IL6 level in culture media compared to untreated cells,AdMSCs [5]; [6],significant reduction
same,effect on synthesis and secretion of immunomodulatory factors,AdMSCs [5]; [6],minor effect
same,TGFβ1 and TGFβ3 mRNA expression,LPS-stimulated AdMSCs,suppressed
same,TGFβ2 mRNA expression,LPS-stimulated AdMSCs,stimulated
O=C(O)Cc1ccccc1Nc1c(Cl)cccc1Cl [diclofenac],effect on CCL2 level,AdMSCs [1],no effect
same,effect on CXCL8 level,AdMSCs [1],stimulated
same,effect on IL6 level,AdMSCs [1],stimulated
same,secreted IL-1RN concentration,AdMSCs [1],17 ± 2 pg/mL
same,secreted IL6 concentration,AdMSCs [1],390 ± 4 pg/mL
same,secreted CXCL8 concentration,AdMSCs [1],2807 ± 361 pg/mL
same,percentage of cells in G0/G1 phase,AdMSCs [3],81%
same,HGF mRNA expression,AdMSCs [4],no effect
same,TEK mRNA expression,AdMSCs [4],no effect
same,VEGFA mRNA expression,AdMSCs [4],no effect
same,bFGF mRNA expression,AdMSCs [4],no effect
same,secreted IL6 concentration,AdMSCs [5]; no LPS,50 ± 1 pg/mL
same,secreted CCL2 concentration,AdMSCs [5]; no LPS,64 ± 8.4 pg/mL
same,effect on synthesis and secretion of immunomodulatory factors,AdMSCs [5]; [6],minor effect
same,TGFβ1 and TGFβ3 mRNA expression,LPS-stimulated AdMSCs,suppressed
same,TGFβ2 mRNA expression,LPS-stimulated AdMSCs,stimulated
C[C@]12C=CC(=O)C=C1CC[C@@H]1[C@@H]2[C@@H](O)C[C@@]2(C)[C@H]1CC[C@]2(O)C(=O)CO [prednisolone],effect on CXCL8 level,AdMSCs [1],significantly reduced
same,effect on IL6 level,AdMSCs [1],significantly reduced
same,secreted IL-1RN concentration,AdMSCs [1],33 ± 2 pg/mL
same,secreted IL6 concentration,AdMSCs [1],50 ± 12 pg/mL
same,secreted CCL2 concentration,AdMSCs [1],314 ± 23.2 pg/mL
same,secreted CXCL8 concentration,AdMSCs [1],402 ± 51 pg/mL
same,IL-1RN level in culture media over time,AdMSCs [1],inhibited
same,IL6 level in culture media over time,AdMSCs [1],moderately induced
same,percentage of cells in G0/G1 phase,AdMSCs [3],77%
same,HGF mRNA expression,AdMSCs [4],inhibited
same,TEK mRNA expression,AdMSCs [4],opposite effect
same,VEGFA mRNA expression,AdMSCs [4],inhibited
same,bFGF mRNA expression,AdMSCs [4],opposite effect
same,secreted IL-1RN concentration,AdMSCs [5]; no LPS,7.3 ± 0.20 pg/mL
same,secreted IL6 concentration,AdMSCs [5]; no LPS,30 ± 2 pg/mL
same,secreted CCL2 concentration,AdMSCs [5]; no LPS,100 ± 12.2 pg/mL
same,secreted CXCL8 concentration,AdMSCs [5]; no LPS,35 ± 0.1 pg/mL
same,CCL2 level in culture media over time,AdMSCs [5]; [7],significantly stimulated
same,effect on synthesis and secretion of immunomodulatory factors,AdMSCs [5]; [6],minor effect
CC(C(=O)O)c1cccc(C(=O)c2ccccc2)c1 (centres unmarked) [ketoprofen],effect on CCL2 level,AdMSCs [1],no effect
same,effect on CXCL8 level,AdMSCs [1],stimulated
same,effect on IL6 level,AdMSCs [1],stimulated
same,secreted IL-1RN concentration,AdMSCs [1],12 ± 0.5 pg/mL
same,secreted IL6 concentration,AdMSCs [1],440 ± 143 pg/mL
same,secreted CCL2 concentration,AdMSCs [1],451 ± 31.8 pg/mL
same,secreted CXCL8 concentration,AdMSCs [1],2509 ± 68 pg/mL
same,percentage of cells in G0/G1 phase,AdMSCs [3],80%
same,HGF mRNA expression,AdMSCs [4],up-regulation
same,TEK mRNA expression,AdMSCs [4],up-regulation
same,VEGFA mRNA expression,AdMSCs [4],up-regulation
same,bFGF mRNA expression,AdMSCs [4],up-regulation
same,secreted IL-1RN concentration,AdMSCs [5]; no LPS,0 pg/mL
same,secreted IL6 concentration,AdMSCs [5]; no LPS,10 ± 1 pg/mL
same,secreted CCL2 concentration,AdMSCs [5]; no LPS,165 ± 23.4 pg/mL
same,secreted CXCL8 concentration,AdMSCs [5]; no LPS,301 ± 0.3 pg/mL
same,effect on synthesis and secretion of immunomodulatory factors,AdMSCs [5]; [6],minor effect
same,"expression of pro-inflammatory cytokines CCL2, CCL3, TNF, IL6, ILIA and ILIB (mRNA)",LPS-stimulated AdMSCs,suppressed
